The nature of data set [1]: LD50, intraperitoneal. As to conditions: mouse, in vivo, ip, intraperitoneally. The source says: LD50 of N-pheny-3-cyclohexyl-sulfonyl-pyrrolidine-2,3-dione when applied intraperitoneally
Data set [2] relates to Candida benhamii. Description: minimal inhibitory concentration, proliferating fungi. It is filed as cell-based. An excerpt:
(§1) As a medium Saboroud medium was employed.

In data set [3] the test system is Candida pseudotropic. The description is as above. It is filed as cell-based.
Source text: as §1

Data set [4] has as its system Candida guilliermondii. The description is as above. It is filed as cell-based. As to conditions: Meyerozyma guilliermondii.
Source text: as §1

In data set [5] the test system is Candida lipolytic. The description is as above. It is filed as cell-based.
Source text: as §1

The test system of data set [6] is Candida parapsilosis. The description is as above. It is filed as cell-based. As to conditions: Lodderomyces parapsilosis.
Source text: as §1

The test system of data set [7] is Candida vini. Described as above. It is filed as cell-based. As to conditions: Kregervanrija fluxuum.
Source text: as §1

Data set [8] has as its system Candida humicola. Described as above. As to conditions: Vanrija humicola. It is filed as cell-based.
Source text: as §1

In brackets after ≈: the same amount, converted by molar mass.

For `O=C1CC(S(=O)(=O)C2CCCCC2)C(=O)N1c1ccccc1` (stereo not shown) [1-Phenyl-3-cyclohexyl-sulfonyl-pyrrolidine-2,5-dione], the LD50 in data set [1] (female mice) stood at 382 mg/kg; in data set [1] (male mice) it was 461 mg/kg.

On to `Cc1ccc(N2C(=O)CC(S(=O)(=O)C3CCCCC3)C2=O)cc1` (stereo not shown), for which the MIC was 25 µg/mL (≈ 74.5 µM) in data set [2] (24 hours); 75 µg/mL (≈ 224 µM) in data set [2] (48 hours); 2.5 µg/mL (≈ 7.45 µM) in data set [3] (24 hours); 10 µg/mL (≈ 29.8 µM) in data set [3] (48 hours); 5 µg/mL (≈ 14.9 µM) in data set [4] (24 hours); 10 µg/mL (≈ 29.8 µM) in data set [4] (48 hours). The MIC in data set [5] (24 hours) was 5 µg/mL (≈ 14.9 µM); in data set [5] (48 hours), 10 µg/mL (≈ 29.8 µM); in data set [6] (24 hours), 10 µg/mL (≈ 29.8 µM); in data set [6] (48 hours), 50 µg/mL (≈ 149 µM); in data set [7] (24 hours) it was 1 µg/mL (≈ 2.98 µM); in data set [7] (48 hours), 5 µg/mL (≈ 14.9 µM). Further, the MIC in data set [8] (24 hours) was determined as 5 µg/mL (≈ 14.9 µM); in data set [8] (48 hours) it was 25 µg/mL (≈ 74.5 µM).

As a reminder, the LD50 is the dose at which mortality reaches 50%. Lower therefore signals greater toxicity. As a reminder, the MIC is the smallest concentration in the dilution series that meets the test's criterion for growth inhibition. Higher therefore signals a less susceptible organism.
